# Test results published in patent publication US20080193411A1, “Anti-viral Compounds” (Genelabs Technologies, Inc., priority 2006, published 2008).
# System: HCV replication
# Assay: HCV replicon assay (luciferase), ET (Huh-lucubineo-ET) cell line
# Format: cell-based
# Settings: Hepatitis C virus; tested at 10 μM; ET (Huh-lucubineo-ET) replicon cells; luciferase activity 48-72 hours; relative to no compound control
# Protocol: A cell line, ET (Huh-lucubineo-ET) was used for screening of compounds of the present invention for inhibiting HCV replication. The ET cell line was stably transfected with RNA transcripts harboring a I389luc-ubi-neo/NS3-3′/ET; replicon with firefly luciferase-ubiquitin-neomycin phosphotransferase fusion protein and EMCV-IRES driven NS3-5B polyprotein containing the cell culture adaptive mutations (E1202G; T1280I; K1846T) (Krieger at al, 2001 and unpublished). The ET cells were grown in DMEM (Dulbeco's Modified Eagle's Medium), supplemented with 10% fetal calf serum, 2 mM Glutamine, Penicillin (100 IU/mL)/Streptomycin (100 μg/mL), 1× nonessential amino acids, and 250 μg/mL G418 (“Geneticin”). They were all available through Life Technologies (Bethesda, Md.). The cells were plated at 0.5-1.0×10^4 cells/well in the 96 well plates and incubated for 24 hrs before adding testing compounds. Then the compounds were added to the cells to achieve a final concentration of 0.1 nM to 50 μM and a final DMSO concentration of 0.5%. Luciferase activity were measured 48-72 hours later by adding a lysis buffer and the substrate (Catalog number Glo-lysis buffer E2661 and Bright-Glo luciferase system E2620 Promega, Madison, Wis.). Cells should not be too confluent during the assay. Percent inhibition of replication was plotted relative to no compound control. Under the same condition, cytotoxicity of the compounds was determined using cell proliferation reagent, WST-1 (Roche, Germany). The compounds showing antiviral activities, but no significant cytotoxicities were chosen to determine EC50 and TC50. For these determinations, a 10 point 2-fold serial dilution for each compound was used, which spans a concentration range of 1000 fold. EC50 and similarly TC50 values were calculated by fitting % inhibition at each concentration to the following equation:
# % inhibition=100%/[(IC50/[I])^b+1]
# where b is Hill's coefficient.
# In some preferred embodiments compounds of Formula I will have a % inhibition of at least 20% when tested at 10 μM. In other embodiments the compounds of Formula I will have a % inhibition of at least 50% when tested at 10 μM.
row,SMILES,inhibition at 10 µM [%]
1,"O=C(OCc1ccccc1)N1CCC[C@H]1c1nc2ccc(-c3ccc4c(c3)OCO4)cc2[nH]1 [Compound 4032, (S)-2-(6-Benzo[1,3]dioxol-5-yl-1H-benzoimidazol-2-yl)-pyrrolidine-1-carboxylic acid benzyl ester]",25.8
2,"O=C(Cc1ccc(-c2ccc3nc([C@@H]4CCCN4C(=O)OCc4ccccc4)[nH]c3c2)cc1)NC1CC1 [Compound 4021, (S)-2-[6-(4-Cyclopropylcarbamoylmethyl-phenyl)-1H-benzoimidazol-2-yl]-pyrrolidine-1-carboxylic acid benzyl ester]",64.5
3,"O=C(OCc1ccccc1)N1CCC[C@H]1c1nc2ccc(-c3ccc4ccccc4c3)cc2[nH]1 [Compound 4011, (S)-2-(6-Naphthalen-2-yl-1H-benzoimidazol-2-yl)-pyrrolidine-1-carboxylic acid benzyl ester]",87
4,"Cc1nc2cc(-c3ccc4nc([C@@H]5CCCN5C(=O)OCc5ccccc5)[nH]c4c3)ccc2s1 [Compound 4051, (S)-2-[6-(2-Methyl-benzothiazol-5-yl)-1H-benzoimidazol-2-yl]-pyrrolidine-1-carboxylic acid benzyl ester]",32.8
5,"O=C(OCc1ccccc1)N1CCC[C@H]1c1nc2ccc(-c3cccs3)cc2[nH]1 [Compound 4029, (S)-2-(6-Thiophen-2-yl-1H-benzoimidazol-2-yl)-pyrrolidine-1-carboxylic acid benzyl ester]",78.1
